Source: patent publication US20230406855A1, “N-1 BRANCHED IMIDAZOQUINOLINES, CONJUGATES THEREOF, AND METHODS” (3M INNOVATIVE PROPERTIES COMPANY, priority 2020, published 2023)

Columns and labels:
[1] = molecular target: T1, human TLR8 (Homo sapiens, UniProt Q9NR97); assay: TLR activation and specificity, HEK-BLUE-hTLR8 SEAP reporter cells; assay type: cell-based; details: 16-20 hours, lowest concentration giving SEAP response at least 2x vehicle control, tested 0.01-30 micromolar
T1 construct: host or cells: HEK293 (HEK-BLUE-hTLR8)
T1 sequence (Q9NR97 27-1041): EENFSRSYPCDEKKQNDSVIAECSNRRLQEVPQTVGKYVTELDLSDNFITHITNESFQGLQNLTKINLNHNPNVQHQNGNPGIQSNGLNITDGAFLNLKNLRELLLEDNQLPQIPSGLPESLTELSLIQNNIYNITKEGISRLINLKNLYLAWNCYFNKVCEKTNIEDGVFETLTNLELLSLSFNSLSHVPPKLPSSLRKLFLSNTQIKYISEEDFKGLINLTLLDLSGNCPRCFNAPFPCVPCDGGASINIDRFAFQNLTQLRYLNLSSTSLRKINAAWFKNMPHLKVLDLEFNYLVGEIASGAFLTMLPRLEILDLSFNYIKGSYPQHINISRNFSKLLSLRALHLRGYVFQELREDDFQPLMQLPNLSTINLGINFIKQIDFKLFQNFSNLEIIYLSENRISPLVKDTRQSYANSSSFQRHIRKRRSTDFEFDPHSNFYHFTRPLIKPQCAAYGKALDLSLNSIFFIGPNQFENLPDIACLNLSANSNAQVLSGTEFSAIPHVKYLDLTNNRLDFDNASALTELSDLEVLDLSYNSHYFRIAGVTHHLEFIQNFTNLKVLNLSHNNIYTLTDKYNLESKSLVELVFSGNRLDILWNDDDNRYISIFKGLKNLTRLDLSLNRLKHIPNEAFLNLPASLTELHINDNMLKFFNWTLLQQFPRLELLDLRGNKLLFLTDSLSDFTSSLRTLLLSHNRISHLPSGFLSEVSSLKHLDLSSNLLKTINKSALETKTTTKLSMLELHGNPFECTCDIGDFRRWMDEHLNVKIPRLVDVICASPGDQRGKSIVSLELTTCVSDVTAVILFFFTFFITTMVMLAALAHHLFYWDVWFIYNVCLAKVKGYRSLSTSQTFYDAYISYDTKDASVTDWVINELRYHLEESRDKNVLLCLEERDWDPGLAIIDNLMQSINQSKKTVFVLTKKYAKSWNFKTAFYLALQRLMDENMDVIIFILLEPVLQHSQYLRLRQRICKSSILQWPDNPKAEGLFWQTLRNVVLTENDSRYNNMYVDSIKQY
Experimental: (§1) HEK-BLUE-hTLR7 or hTLR8 reporter cells were obtained from InvivoGen, San Diego, CA. According to the manufacturer's description, these reporter cells were prepared by co-transfection of HEK293 cells with an inducible secreted embryonic alkaline phosphatase (SEAP) reporter gene and either the human TLR7 or TLR8 gene. The SEAP reporter gene was placed under the control of an IFN-β minimal promoter fused to five NF-κB and AP-1-binding sites. In the presence of a TLR ligand, activation of NF-κB and AP-1 occurs, resulting in a corresponding increase in SEAP levels. […]
(§2) For each compound, hTLR7, hTLR8, and their respective null control HEK cells were screened. […] Cell culture supernatants containing the SEAP reporter were collected after an incubation period of 16-20 hours in a cell culture incubator (37° C. and 5% CO2), and either analyzed immediately or stored at −80° C. SEAP levels were measured using the colorimetric enzyme assay (QUANTI-BLUE (InvivoGen) according to manufacturer's instructions.
(§3) Specifically, the minimum effective concentration of each compound (micromolar) was determined as the lowest concentration of the compound that produced a SEAP expression response at least 2× greater than that observed with the vehicle control wells.

[2] = tested on: Human peripheral blood mononuclear cells (PBMC); assay: Cytokine induction in human cells (PBMC), Ella Simple Plex ELISA; assay type: cell-based; details: 21-24 hours, lowest concentration giving cytokine at least 2x negative control, tested 0.01-30 micromolar
Experimental: Whole blood was obtained from healthy human donors and collected by venipuncture into vacutainer tubes or syringes containing EDTA. Human peripheral blood mononuclear cells (PBMC) were purified from the whole blood by density gradient centrifugation. Histopaque 1077 (15 mL, Sigma, St. Louis, MO) was transferred to 6×50 mL sterile polypropylene conical tubes. The Histopaque was overlayed with 15-25 mL of blood diluted 1:2 in Hank's Balanced Salts Solution (HBSS) (Gibco, Life Technologies, Grand Island, NY). The tubes were then centrifuged at 1370 rpm for 30 minutes at 20° C., with no brake (400×g, GH 3.8 A Rotor).
The interface (buffy coat) containing the PBMC was collected and placed in a new sterile 50 mL conical polypropylene centrifuge tube. The PBMC were mixed with an equal volume of HBSS (about 20 mL from the interface and about 20 mL of HBSS), and then centrifuged at 1090 rpm, 10 minutes, 20° C., with brake (270×g, GH 3.8 A Rotor). After completing centrifugation, the cells were resuspended in 2-3 mL ACK Red blood cell lysis buffer (ammonium chloride potassium solution, Gibco, Life Technologies) and incubated for 2-5 minutes at 20° C. Next, HBSS (40 mL) was added to the cells, and the sample was centrifuged at 270×g for 10 minutes at 20° C. The supernatant was decanted, and the cell pellet was resuspended in 5 mL AIM V Medium (Gibco, Life Technologies). Cell aggregates and debris were removed by filtering the cell solution through a BD Falcon 70 micron nylon cell strainer (BD Biosciences, San Jose, CA).
The number of viable cells was determined by counting with a Moxi Z instrument (ORFLO Technologies, Ketchum, ID) or by using a hemacytometer. For determining cell viability with a hemacytometer, the cells were diluted 1/10 in 0.4% trypan blue and HBSS (specifically, 50 microliter of trypan blue+40 microliter of HBSS+10 microliter of cell solution were added to a microfuge tube and mixed). Ten microliters of the diluted cells were then applied to the hemacytometer, and the number of viable PBMC were determined by microscopy.
The PBMC sample was then resuspended in 96-well plates at a concentration of 8×10^5 cells/well in 0.1 mL of AIM-V medium. Each compound was solubilized in dimethyl sulfoxide (DMSO) to create a 3 mM stock solution. The stock solution was then further diluted with AIM-V medium to prepare the serial dilutions. The diluted compound (100 microliters) was then transferred to the PBMCs to produce testing sets with final compound concentrations of 30, 10, 3.3, 1.1, 0.37, 0.12, 0.04, 0.01 micromolar. The plates also had both positive and negative controls. The negative control wells contained only AIM-V medium with no example compound. The positive control wells contained a control set of imiquimod serially diluted to concentrations of 30, 10, 3.3, 1.1, 0.37, 0.12, 0.04, 0.01 micromolar. The concentrations used in the control set were selected to match the concentrations used in the testing set. The plates were then cultured at 37° C./5% CO2 for 21-24 hours. Cell-free supernatants were harvested by centrifuging the 96-well plates at 2100 rpm, 23° C. for 10 minutes. Approximately 160 microliters of the supernatant was then stored in a NUNC 96-well plate, covered with the compression cap and stored at −80° C. until the cytokine analysis was done.
Cytokine levels (human IFN-alpha multisubtype, human IFN-gamma, and human TNF-alpha) were measured in picograms/mL by Ella Simple Plex ELISA (ProteinSimple, San Jose, CA) according to the manufacturer's instructions.
Specifically, the minimum effective concentration of each compound (micromolar) was determined as the lowest concentration of the compound that induced a measured cytokine response at a level ([…]) that was at least 2× greater than that observed with the negative control wells.

[3] = molecular target: T2, human TLR7 (Homo sapiens, UniProt Q9NYK1); assay: TLR activation and specificity, HEK-BLUE-hTLR7 SEAP reporter cells; assay type: cell-based; details: 16-20 hours, lowest concentration giving SEAP response at least 2x vehicle control, tested 0.01-30 micromolar
T2 construct: host or cells: HEK293 (HEK-BLUE-hTLR7)
T2 sequence (Q9NYK1 27-1049): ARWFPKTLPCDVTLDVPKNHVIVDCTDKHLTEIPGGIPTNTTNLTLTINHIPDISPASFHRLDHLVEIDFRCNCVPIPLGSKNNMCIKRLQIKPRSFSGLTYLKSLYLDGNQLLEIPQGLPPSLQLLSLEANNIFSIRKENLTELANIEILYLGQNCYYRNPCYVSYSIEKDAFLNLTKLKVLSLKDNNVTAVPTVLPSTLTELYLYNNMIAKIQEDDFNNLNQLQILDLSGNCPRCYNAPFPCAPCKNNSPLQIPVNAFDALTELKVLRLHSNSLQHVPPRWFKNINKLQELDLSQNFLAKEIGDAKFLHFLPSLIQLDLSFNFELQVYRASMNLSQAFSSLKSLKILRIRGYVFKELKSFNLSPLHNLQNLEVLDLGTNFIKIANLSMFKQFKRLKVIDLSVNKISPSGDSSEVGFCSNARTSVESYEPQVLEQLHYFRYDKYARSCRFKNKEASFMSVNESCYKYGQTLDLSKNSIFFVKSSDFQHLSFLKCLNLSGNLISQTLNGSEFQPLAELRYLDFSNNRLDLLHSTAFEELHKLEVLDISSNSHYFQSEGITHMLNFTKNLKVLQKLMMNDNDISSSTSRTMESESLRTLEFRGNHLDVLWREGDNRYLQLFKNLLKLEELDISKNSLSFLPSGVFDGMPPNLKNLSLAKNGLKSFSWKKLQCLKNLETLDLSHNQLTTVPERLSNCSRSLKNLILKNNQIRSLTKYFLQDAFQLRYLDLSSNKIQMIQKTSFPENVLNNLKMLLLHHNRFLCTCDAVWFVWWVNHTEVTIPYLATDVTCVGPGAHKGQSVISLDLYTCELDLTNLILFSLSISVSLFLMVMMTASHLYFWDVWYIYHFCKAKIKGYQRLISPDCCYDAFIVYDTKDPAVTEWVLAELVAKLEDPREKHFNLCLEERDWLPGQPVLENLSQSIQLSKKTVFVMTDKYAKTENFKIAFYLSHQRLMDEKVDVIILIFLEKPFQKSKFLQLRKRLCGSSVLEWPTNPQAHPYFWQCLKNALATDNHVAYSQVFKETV
Experimental: as §1, §2, §3

[4] = tested on: LHRH receptor expressing tumor cells; details: free Dox relative to LHRH-conjugated Dox; cited from earlier work

MEC to Produce TLR Activation, TLR 8 [1] [µM] | MEC to Produce TLR Activation, TLR 7 [3] [µM] | SMILES | MEC to Induce Cytokine IFN-alpha [2] [µM] | MEC to Induce Cytokine IFN-gamma [2] [µM] | MEC to Induce Cytokine TNF-alpha [2] [µM] | amount of free Dox required for antitumor activity equal to the LHRH conjugate [4]
10 | ≤0.01 | C#CCOc1ccc(C[C@@H](COCC)n2cnc3c(N)nc4ccccc4c32)cc1 [Example 1, (S)-1-(1-ethoxy-3-(4-(prop-2-yn-1-yloxy)phenyl)propan-2-yl)-1H-imidazo[4,5-c]quinolin-4-amine] | ≤0.01 | ≤0.01 | ≤0.01 | –
3.3 | ≤0.01 | CCOC[C@H](Cc1ccc(OCc2cn(Cc3ccccc3)nn2)cc1)n1cnc2c(N)nc3ccccc3c21 [Example 2, (S)-1-(1-(4-((1-benzyl-1H-1,2,3-triazol-4-yl)methoxy)phenyl)-3-ethoxypropan-2-yl)-1H-imidazo[4,5-c]quinolin-4-amine] | ≤0.01 | ≤0.01 | ≤0.01 | –
– | – | C[C@@H]1C[C@H]2[C@@H]3CCC4=CC(=O)C=C[C@]4(C)C3=CC[C@]2(C)[C@H]1C(=O)CN1CCN(c2cc(N3CCCC3)nc(N3CCCC3)n2)CC1 [Dox] | – | – | – | approximately 200 times
